Reference: patent US11819512B2, “Solid forms of a CD73 inhibitor and the use thereof” (ARCUS BIOSCIENCES, INC., priority 2018, dated 2023)

Experiments:
[1] = Stability of crystalline material on storage (HPLC and XRPD); assay type: physicochemical; details: for purity by HPLC after storage: decrease from 99%
[2] = Hygroscopicity by dynamic vapor sorption (DVS); assay type: physicochemical; details: 25° C.
Description: A quantity of the crystalline material was analyzed by dynamic vapor sorption (DVS). The sample was subjected to a ramping profile from 40-90% RH at 10% increments, maintaining the sample at each step until a stable weight had been achieved at 25° C. After completion of the sorption cycle, the sample was dried using the same procedure to 0% RH followed by a second sorption cycle back to 40% RH. Two cycles were performed overall. The weight change during the sorption/desorption cycles were plotted, allowing for the hygroscopic nature of the sample to be determined. Significant hysteresis was observed, with the material retaining much larger quantities of water during the second sorption cycle as shown in FIG. 10. […] The amount of water in the sample at 90% relative humidity corresponds to the pentahydrate of the material.

[3] = 40° C. at 75% relative humidity (RH) for one week

C[C@H](Nc1cc(Cl)nc2c1cnn2[C@@H]1O[C@H](COP(=O)(O)CP(=O)(O)O)[C@@H](O)[C@H]1O)c1ccccc1F [crystalline material, [({[(2R,3S,4R,5R)-5-(6-chloro-4-{[(1S)-1-(2-fluorophenyl)ethyl]amino}-1H-pyrazolo[3,4-b]pyridin-1-yl)-3,4-dihydroxyoxolan-2-yl]methoxy}(hydroxy)phosphoryl)methyl]phosphonic Acid]
crystallinity after storage ([1]; 25° C. at 60% relative humidity (RH) for one week): no change in crystallinity | solid form by XRPD after storage [1, 3]: conversion to the amorphous material | purity by HPLC after storage [1, 3]: 97.3% | morphology by XRPD after storage ([1]; 80° C. for one week): no change in morphology | purity by HPLC after storage ([1]; 80° C. for one week): 97.4% | hygroscopic nature ([2]; DVS): hygroscopic | XRPD of the sample post-DVS ([2]; after two sorption/desorption cycles, 0-90% RH): loss of crystallinity and regeneration of amorphous material | increase of water (weight) by DVS ([2]; at 90% relative humidity relative to 0% relative humidity): 13.2 % wt.
